Laboratory results reported in patent US10406097B2, “Extract of Arthrobacter agilis for use in particular in cosmetics” (priority 2013, dated 2019).

System: Normal human keratinocytes (NHK)
Test: Carbonylation test (OxyELISA) after UV/visible irradiation
Type: cell-based
Conditions: SBE 200 nM; Tocopherol acetate 20 μM; 2 hours contact; 120 kJ/m^2; P-value <0.01
Protocol: By following the same UV/visible irradiation protocol as the one used above for the comet assay, the rate of carbonylation of keratinocytes in the presence of SBE and tocopherol acetate was measured.
• Normal human keratinocytes (NHK) (T6)-10^6 cells/condition • Conditions: • 1% THF solvent control • SBE 200 nM • Tocopherol acetate 20 μM • Each condition is carried out in triplicate. • Contact with KHNs in different experimental conditions for 2 hours. • UVB/UVA/Visible irradiation at 120 kJ/m^2 of the cells placed in PBS by a Suntest CPS+ solar simulator (Atlas Material Testing Technology) at 4° C. Negative controls are maintained at 4° C. for the same duration as the irradiation. • Trypsination of the cells post irradiation. Rinsing of the iced PBS. Elimination of the PBS and immediate freezing of the cell pellets at −80° C. 2—Measurement of the Carbonylation • The proteins are extracted after lysis of the cells and their concentration is measured using the Bradford test. • The proteins are derived by 2,4-dinitrophenylhydrazine (DNPH), which binds to the carbonyl groups. • The carbonylation rate is then measured on ELISA plates (OxyELISA™ Oxidized Protein Quantitation Kit, Millipore) at 450 nm. Results

CC(=O)Oc1c(C)c(C)c2c(c1C)CCC(C)(CCC[C@H](C)CCC[C@H](C)CCCC(C)C)O2 (stereo partly shown) [tocopherol acetate]
increase of the rate of carbonylation of keratinocyte proteins after UV/visible irradiation: decreases significantly
